{"source": "patent US11800868B2", "about": "“Isoflavonoid compounds and use thereof” (Novozymes BioAg A/S, priority 2004, dated 2023)", "key": {"tomato": {"system": "tomato", "assay": "Signal applied to tomato seedling roots transplanted into soil inoculated with soybean rhizobia (field)"}, "potato": {"system": "potato", "assay": "Growth promotion of potato tubers with signals, field", "assay_type": "in vivo", "method": "Notes: • 1. Microtubers (cv. Bintje, tuber size from 0.5-0.7 g) were soaked in each test solution overnight at 25° C. in the incubator. Treatment rate was 50 ml/treatment, and 50 ml water as control. • 2. […] Treated potato tubers were planted in soil 10-15 cm deep, 10 tubers in 10 M^2 plot and supplied 500 ml of water to each tuber in ground after planting. • 4. Planted date: Aug. 20, 2004 and harvested date: Oct. 15, 2004."}}}
{"smiles": "O=c1c(-c2ccc(O)cc2)coc2cc(O)cc(O)c12", "note": "[genistein]", "values": [{"measurement": "Fruit/plot", "setting": "tomato; 100 ml at 1 μM/plant, Early", "value": 67.75}, {"measurement": "Fruit/plot % vs ctrl", "setting": "tomato; 100 ml at 1 μM/plant, Early", "value": 16.81, "unit": "%"}, {"measurement": "Kg/plot", "setting": "tomato; 100 ml at 1 μM/plant, Early", "value": 12.02, "unit": "Kg/plot"}, {"measurement": "Kg/plot % vs ctrl", "setting": "tomato; 100 ml at 1 μM/plant, Early", "value": 15.47, "unit": "%"}, {"measurement": "Fruit/plot", "setting": "tomato; 100 ml at 1 μM/plant, Normal", "value": 241.5}, {"measurement": "Fruit/plot % vs ctrl", "setting": "tomato; 100 ml at 1 μM/plant, Normal", "value": 10.27, "unit": "%"}, {"measurement": "Kg/plot", "setting": "tomato; 100 ml at 1 μM/plant, Normal", "value": 27.10, "unit": "Kg/plot"}, {"measurement": "Kg/plot % vs ctrl", "setting": "tomato; 100 ml at 1 μM/plant, Normal", "value": 5.86, "unit": "%"}, {"measurement": "Fruit/plot", "setting": "tomato; 100 ml at 10 μM/plant, Early", "value": 66.25}, {"measurement": "Fruit/plot % vs ctrl", "setting": "tomato; 100 ml at 10 μM/plant, Early", "value": 14.22, "unit": "%"}, {"measurement": "Kg/plot", "setting": "tomato; 100 ml at 10 μM/plant, Early", "value": 11.64, "unit": "Kg/plot"}, {"measurement": "Kg/plot % vs ctrl", "setting": "tomato; 100 ml at 10 μM/plant, Early", "value": 11.82, "unit": "%"}, {"measurement": "Fruit/plot", "setting": "tomato; 100 ml at 10 μM/plant, Normal", "value": 217.75}, {"measurement": "Fruit/plot % vs ctrl", "setting": "tomato; 100 ml at 10 μM/plant, Normal", "value": "−0.57", "unit": "%"}, {"measurement": "Kg/plot", "setting": "tomato; 100 ml at 10 μM/plant, Normal", "value": 25.91, "unit": "Kg/plot"}, {"measurement": "Kg/plot % vs ctrl", "setting": "tomato; 100 ml at 10 μM/plant, Normal", "value": 1.21, "unit": "%"}, {"measurement": "Fruit/plot", "setting": "tomato; 100 ml at 50 μM/plant, Early", "value": 71}, {"measurement": "Fruit/plot % vs ctrl", "setting": "tomato; 100 ml at 50 μM/plant, Early", "value": 22.41, "unit": "%"}, {"measurement": "Kg/plot", "setting": "tomato; 100 ml at 50 μM/plant, Early", "value": 12.85, "unit": "Kg/plot"}, {"measurement": "Kg/plot % vs ctrl", "setting": "tomato; 100 ml at 50 μM/plant, Early", "value": 23.44, "unit": "%"}, {"measurement": "Fruit/plot", "setting": "tomato; 100 ml at 50 μM/plant, Normal", "value": 198.5}, {"measurement": "Fruit/plot % vs ctrl", "setting": "tomato; 100 ml at 50 μM/plant, Normal", "value": "−9.36", "unit": "%"}, {"measurement": "Kg/plot", "setting": "tomato; 100 ml at 50 μM/plant, Normal", "value": 25.77, "unit": "Kg/plot"}, {"measurement": "Kg/plot % vs ctrl", "setting": "tomato; 100 ml at 50 μM/plant, Normal", "value": 0.66, "unit": "%"}, {"measurement": "tuber size", "setting": "potato; 300-500 μM", "value": "larger tuber size"}, {"measurement": "potato tuber yield increase over control", "setting": "potato; microtubers soaked in 300 μM solution overnight", "value": "up to 17.7%"}]}
